Activity calls are given as the source filed them.
Legend:
SN12K1 = test: cells; assay type: functional; details: Homo sapiens
P388/ADR = test: cells; assay type: functional; details: Mus musculus
P388 = test: cells; assay type: functional; details: Mus musculus
[1] = biological target: T1, Sentrin-specific protease 7 (Homo sapiens, UniProt Q9BQF6); assay type: functional;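 note: Luminescence-based dose-response confirmation of ultra-high-throughput screening hits, measuring inhibition of SENP7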
T1 sequence (Q9BQF6 whole entry): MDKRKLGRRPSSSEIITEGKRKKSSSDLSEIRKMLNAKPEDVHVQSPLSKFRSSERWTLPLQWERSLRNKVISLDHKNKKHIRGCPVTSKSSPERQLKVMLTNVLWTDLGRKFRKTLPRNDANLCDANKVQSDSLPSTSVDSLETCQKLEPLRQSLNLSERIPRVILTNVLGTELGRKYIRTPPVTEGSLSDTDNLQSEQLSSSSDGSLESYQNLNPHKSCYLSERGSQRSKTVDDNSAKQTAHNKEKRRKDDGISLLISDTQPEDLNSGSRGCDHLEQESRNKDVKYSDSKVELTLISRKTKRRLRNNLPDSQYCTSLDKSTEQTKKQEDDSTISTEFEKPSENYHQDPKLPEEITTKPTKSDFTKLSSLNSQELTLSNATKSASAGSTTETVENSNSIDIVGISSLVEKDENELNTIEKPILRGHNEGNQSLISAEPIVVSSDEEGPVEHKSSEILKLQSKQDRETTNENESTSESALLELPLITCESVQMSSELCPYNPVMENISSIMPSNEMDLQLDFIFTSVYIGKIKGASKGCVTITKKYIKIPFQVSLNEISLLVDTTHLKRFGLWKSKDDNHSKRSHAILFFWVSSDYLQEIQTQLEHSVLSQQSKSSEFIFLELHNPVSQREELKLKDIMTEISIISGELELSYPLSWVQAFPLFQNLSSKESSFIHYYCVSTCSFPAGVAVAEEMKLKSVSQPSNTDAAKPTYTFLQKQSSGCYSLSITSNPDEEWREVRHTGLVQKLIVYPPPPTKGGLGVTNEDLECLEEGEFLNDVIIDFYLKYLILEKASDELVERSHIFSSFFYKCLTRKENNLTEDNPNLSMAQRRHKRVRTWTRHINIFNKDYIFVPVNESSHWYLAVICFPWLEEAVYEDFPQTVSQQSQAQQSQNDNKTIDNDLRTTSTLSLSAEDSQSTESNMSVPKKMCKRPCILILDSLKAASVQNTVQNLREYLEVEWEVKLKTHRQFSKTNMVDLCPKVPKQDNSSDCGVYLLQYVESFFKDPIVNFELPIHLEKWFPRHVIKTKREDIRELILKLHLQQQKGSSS

Caspase-3 = biological target: T2, Caspase-3 (Homo sapiens, UniProt P42574); assay type: functional;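 note: Dose-response selectivity test against caspase-3 for candidate inhibitors of sentrin-specific proteases (SENPs)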
T2 sequence (P42574 whole entry): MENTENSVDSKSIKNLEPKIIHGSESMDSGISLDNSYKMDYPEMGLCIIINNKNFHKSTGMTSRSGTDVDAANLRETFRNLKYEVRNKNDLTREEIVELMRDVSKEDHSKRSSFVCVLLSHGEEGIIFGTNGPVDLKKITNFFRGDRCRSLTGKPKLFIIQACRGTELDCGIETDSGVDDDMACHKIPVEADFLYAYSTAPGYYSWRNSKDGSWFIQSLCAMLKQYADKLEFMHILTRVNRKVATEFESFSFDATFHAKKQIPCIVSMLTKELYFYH

[2] = biological target: T3, Sentrin-specific protease 6 (Homo sapiens, UniProt Q9GZR1); assay type: functional;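 note: Luminescence-based dose-response confirmatory assay of SENP6 inhibition, following up an ultra-high-throughput screen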
T3 sequence (Q9GZR1 whole entry): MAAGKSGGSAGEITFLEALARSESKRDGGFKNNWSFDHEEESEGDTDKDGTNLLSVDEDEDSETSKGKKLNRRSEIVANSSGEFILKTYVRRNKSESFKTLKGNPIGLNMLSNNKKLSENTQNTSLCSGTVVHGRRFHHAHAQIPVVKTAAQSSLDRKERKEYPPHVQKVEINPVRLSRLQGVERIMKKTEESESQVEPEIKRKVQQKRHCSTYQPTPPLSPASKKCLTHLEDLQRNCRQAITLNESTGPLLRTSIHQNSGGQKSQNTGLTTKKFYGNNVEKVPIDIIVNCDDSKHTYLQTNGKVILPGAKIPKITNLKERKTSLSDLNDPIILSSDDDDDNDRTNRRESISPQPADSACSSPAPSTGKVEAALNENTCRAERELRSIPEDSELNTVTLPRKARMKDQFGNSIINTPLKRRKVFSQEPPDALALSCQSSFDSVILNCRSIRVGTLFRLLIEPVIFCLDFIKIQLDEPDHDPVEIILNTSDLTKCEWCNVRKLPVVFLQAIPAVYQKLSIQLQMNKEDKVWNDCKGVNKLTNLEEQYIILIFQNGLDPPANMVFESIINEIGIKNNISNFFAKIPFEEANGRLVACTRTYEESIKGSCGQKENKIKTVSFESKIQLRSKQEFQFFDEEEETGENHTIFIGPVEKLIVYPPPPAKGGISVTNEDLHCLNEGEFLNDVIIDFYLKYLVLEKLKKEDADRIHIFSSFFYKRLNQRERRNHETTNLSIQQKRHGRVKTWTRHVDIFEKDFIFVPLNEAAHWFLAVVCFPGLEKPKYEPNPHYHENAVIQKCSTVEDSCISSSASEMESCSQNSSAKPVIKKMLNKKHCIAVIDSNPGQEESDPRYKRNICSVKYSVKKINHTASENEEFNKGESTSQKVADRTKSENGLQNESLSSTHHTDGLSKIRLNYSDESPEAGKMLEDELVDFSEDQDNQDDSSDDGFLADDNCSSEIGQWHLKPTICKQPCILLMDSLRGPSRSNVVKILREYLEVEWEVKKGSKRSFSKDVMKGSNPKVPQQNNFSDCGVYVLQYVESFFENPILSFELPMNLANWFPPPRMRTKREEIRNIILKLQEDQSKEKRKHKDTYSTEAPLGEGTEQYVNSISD

[3] = biological target: T4, Sentrin-specific protease 8 (Homo sapiens, UniProt Q96LD8); assay type: functional;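 note: luminescence read-out of SENP8 inhibition, dose-response confirmation following an ultra-high-throughput screen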
T4 sequence (Q96LD8 whole entry): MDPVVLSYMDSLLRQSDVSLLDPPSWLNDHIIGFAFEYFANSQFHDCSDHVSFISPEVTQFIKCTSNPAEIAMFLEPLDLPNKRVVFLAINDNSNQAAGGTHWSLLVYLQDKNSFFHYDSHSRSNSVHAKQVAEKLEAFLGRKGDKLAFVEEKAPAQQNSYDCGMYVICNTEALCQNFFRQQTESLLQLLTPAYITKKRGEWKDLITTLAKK

[4] = biological target: T5, Endoribonuclease toxin MazF (Escherichia coli K-12, UniProt P0AE70); test: MazF toxin RNase activators, dose response, biochemical, fluorescence, single-stranded RNA substrate, uHTS hits (AID 588481); assay type: functional
T5 sequence (P0AE70 whole entry): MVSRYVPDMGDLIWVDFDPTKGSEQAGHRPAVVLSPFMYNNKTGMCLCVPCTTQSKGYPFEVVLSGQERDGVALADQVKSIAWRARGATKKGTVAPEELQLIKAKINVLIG

Cytochrome P450 2C9 = Cytochrome P450 2C9 (Homo sapiens, UniProt P11712)
Cytochrome P450 2C9, sequence (P11712 whole entry): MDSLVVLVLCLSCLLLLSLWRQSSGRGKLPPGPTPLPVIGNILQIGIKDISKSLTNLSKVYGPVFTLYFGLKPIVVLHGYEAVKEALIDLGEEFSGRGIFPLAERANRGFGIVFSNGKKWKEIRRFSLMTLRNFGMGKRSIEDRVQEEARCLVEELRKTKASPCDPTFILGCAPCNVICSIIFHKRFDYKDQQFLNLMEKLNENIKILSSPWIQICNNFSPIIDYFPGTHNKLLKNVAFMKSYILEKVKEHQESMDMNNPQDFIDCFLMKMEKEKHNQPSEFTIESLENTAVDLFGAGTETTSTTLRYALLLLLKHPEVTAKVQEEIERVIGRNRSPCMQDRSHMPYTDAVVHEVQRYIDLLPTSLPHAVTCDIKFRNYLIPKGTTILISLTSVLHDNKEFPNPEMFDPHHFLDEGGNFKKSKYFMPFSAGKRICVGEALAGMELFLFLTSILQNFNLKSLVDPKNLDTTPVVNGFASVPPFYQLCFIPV

[5] = biological target: T5, Endoribonuclease toxin MazF; test: fluorescent RNA oligo signal without MazF, dose response, counter-screen for MazEF activator project, biochemical, fluorescence, single-stranded RNase substrate (AID 588502); assay type: functional
[6] = biological target: T6, Polyadenylate-binding protein 1 (Homo sapiens, UniProt P11940); test: PABP1 MLLE–PAM2 binding inhibitor potency, dose response, biochemical, fluorescence polarization, FITC-PAM2 peptide (AID 602259); assay type: functional; details: read-out: IC50_Mean
T6 sequence (P11940 whole entry): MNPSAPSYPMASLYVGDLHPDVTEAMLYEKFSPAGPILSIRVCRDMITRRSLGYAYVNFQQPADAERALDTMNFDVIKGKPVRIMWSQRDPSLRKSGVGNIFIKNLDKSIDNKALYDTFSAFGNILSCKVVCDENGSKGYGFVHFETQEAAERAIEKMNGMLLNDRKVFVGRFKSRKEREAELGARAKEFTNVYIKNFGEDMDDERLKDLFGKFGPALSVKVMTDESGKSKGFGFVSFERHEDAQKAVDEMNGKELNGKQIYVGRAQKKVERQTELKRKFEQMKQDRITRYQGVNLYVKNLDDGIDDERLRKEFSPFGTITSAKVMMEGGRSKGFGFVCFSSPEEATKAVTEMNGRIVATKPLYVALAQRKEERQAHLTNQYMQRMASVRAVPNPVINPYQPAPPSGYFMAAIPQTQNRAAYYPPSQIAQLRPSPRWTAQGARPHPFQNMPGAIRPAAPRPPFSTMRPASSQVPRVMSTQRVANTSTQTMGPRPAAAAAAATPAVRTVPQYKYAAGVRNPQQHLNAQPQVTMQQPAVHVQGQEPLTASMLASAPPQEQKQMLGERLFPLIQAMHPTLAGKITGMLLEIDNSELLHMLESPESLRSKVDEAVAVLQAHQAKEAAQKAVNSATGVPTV

[7] = biological target: T6, Polyadenylate-binding protein 1; test: PABP1 MLLE–PAM2 interaction inhibitors, dose response, miRNA deadenylation inhibitor project, biochemical, fluorescence polarization, Cy5-PAM2 peptide, secondary (AID 602260); assay type: functional; details: read-out: IC50_Mean
[8] = test system: Streptococcus sp. 'group A'; test: growth inhibition of control SK(-) GAS strain, dose response, counter-screen for streptokinase expression inhibitor project, luminescence, kanamycin, BacTiterGlo, confirmation (AID 1900); assay type: functional, organism-based
[9] = Luminescence Cell-Based Dose Response HTS to Identify Activators of Luciferase Translation or Activity in H4 […] Cells. [Related pubchem assays: 1829 (Project Summary), 1814 (Primary HTS)]; assay type: functional
[10] = Luminescence Cell-Based Dose Confirmation HTS to Identify Activators of 5'UTR Stem-Loop Driven Alpha-Synuclein mRNA Translation in H4 Neuroglioblastoma Cells. [Related pubchem assays: 1829 (Project Summary), 1814 (Primary HTS)]; assay type: functional
Streptokinase A = biological target: T7, Streptokinase A (Streptococcus pyogenes serotype M1, UniProt P10520); test: S. pyogenes streptokinase expression inhibitors, potency, dose response, plasminogen activation absorbance, OD405 (AID 1914); assay type: functional, Streptococcus pyogenes M1 GAS;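 note: secreted streptokinase activity via plasminogen activation per viability signal from cell pellet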
T7 sequence (P10520 whole entry): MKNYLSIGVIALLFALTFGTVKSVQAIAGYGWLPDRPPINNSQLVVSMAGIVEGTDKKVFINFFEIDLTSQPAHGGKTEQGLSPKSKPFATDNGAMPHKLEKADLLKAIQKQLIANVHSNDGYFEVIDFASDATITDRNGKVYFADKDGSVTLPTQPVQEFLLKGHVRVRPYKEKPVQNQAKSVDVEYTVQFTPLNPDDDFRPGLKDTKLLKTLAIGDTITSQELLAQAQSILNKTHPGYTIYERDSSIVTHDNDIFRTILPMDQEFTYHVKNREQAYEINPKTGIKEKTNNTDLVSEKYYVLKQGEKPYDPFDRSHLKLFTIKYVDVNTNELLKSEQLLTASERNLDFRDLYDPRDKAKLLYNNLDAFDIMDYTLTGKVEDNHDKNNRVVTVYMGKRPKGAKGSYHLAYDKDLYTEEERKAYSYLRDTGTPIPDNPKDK

Streptococcus = test: Group A Streptococcus viability loss, dose response, counter-screen for streptokinase expression inhibitor project, luminescence, BacTiterGlo (AID 1915); assay type: functional, organism-based;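 note: potency for reduction of bacterial viability or growth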
H4 = test: Luminescence Cell-Based Dose Response HTS to Identify Activators of 5'UTR Stem-Loop Driven Prion Protein mRNA Translation in H4 Neuroglioblastoma Cells. [Related pubchem assays: 1829 (Project Summary), 1814 (Primary HTS)]; assay type: functional; details: Homo sapiens
Protein skinhead-1 = biological target: T8, Protein skinhead-1 (Caenorhabditis elegans, UniProt P34707); assay type: functional
T8 sequence (P34707 whole entry): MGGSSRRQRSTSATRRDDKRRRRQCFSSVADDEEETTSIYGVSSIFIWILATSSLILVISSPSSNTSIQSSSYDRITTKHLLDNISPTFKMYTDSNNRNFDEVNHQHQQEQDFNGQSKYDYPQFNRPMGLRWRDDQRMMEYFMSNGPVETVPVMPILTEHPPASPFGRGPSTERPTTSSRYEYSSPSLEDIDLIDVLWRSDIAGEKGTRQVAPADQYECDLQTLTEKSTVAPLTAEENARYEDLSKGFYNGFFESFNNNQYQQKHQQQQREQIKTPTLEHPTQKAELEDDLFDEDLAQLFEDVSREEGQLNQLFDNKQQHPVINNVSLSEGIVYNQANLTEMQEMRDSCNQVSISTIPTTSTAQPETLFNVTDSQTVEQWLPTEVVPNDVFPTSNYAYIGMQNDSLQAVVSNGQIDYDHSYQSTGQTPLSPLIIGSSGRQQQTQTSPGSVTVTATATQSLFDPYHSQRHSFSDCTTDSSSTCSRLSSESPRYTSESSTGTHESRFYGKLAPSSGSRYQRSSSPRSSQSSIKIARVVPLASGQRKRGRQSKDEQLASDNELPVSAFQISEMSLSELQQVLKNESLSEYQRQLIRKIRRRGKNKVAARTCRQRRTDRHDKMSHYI

| Structure (SMILES) | GI50 (SN12K1) | GI50 (P388/ADR) | GI50 (P388) | EC50 [4] | EC50 [5] | further results |
| --- | --- | --- | --- | --- | --- | --- |
| N#C/C(=C\c1ccncc1)c1csc2ccccc12 | 29.2 µM (inactive) | 6.49 µM (inactive) | 19.1 µM (inactive) | – | – | – |
| CCOC(=O)c1sc(NC(=O)c2ccc3nc[nH]c3c2)nc1C | – | – | – | – | – | IC50 [1]: 2.47 µM (active); IC50 (Caspase-3): 7.1 µM (active); IC50 [2]: 5.17 µM (active); IC50 [3]: 3.4 µM (active) |
| COC1=C2C[C@@H](C)C[C@@H](OC)[C@@H](O)[C@H](C)/C=C(\C)[C@@H](OC(N)=O)[C@H](OC)/C=C\C=C(/C)C(=O)NC(=CC1=O)C2=O | 0.11 µM (active) | 0.212 µM (active) | 0.015 µM (active) | – | – | – |
| Cc1ccc(OCC(=O)Nc2ccc(Cl)cc2)c(-n2nc3ccccc3n2)c1 | – | – | – | > 99 µM (inactive) | > 99 µM (inactive) | AC50 (Cytochrome P450 2C9): 2 µM (inconclusive) |
| COCCCn1c(=O)/c(=C/c2ccccc2OC(F)F)s/c1=C(\C#N)C(=O)NCCOC | – | – | – | > 99 µM (inactive) | > 99 µM (inactive) | – |
| O=C(CCl)NNC1=Nc2ccc(Cl)cc2SC1 | 3.45 µM (inactive) | 0.627 µM (active) | 0.236 µM (active) | – | – | – |
| CCCCCn1cc2c3c(cccc31)C1C=C(C)CN(C)[C@@H]1C2.Cc1ccc(C(=O)OC(C(=O)O)C(OC(=O)c2ccc(C)cc2)C(=O)O)cc1 (centres undefined) | 3.56 µM (inactive) | 3.18 µM (inactive) | 2.63 µM (inactive) | – | – | – |
| CCN(CCNc1ccc([N+](=O)[O-])c2cccnc12)S(=O)(=O)c1ccccc1 | – | – | – | > 99 µM (inactive) | > 99 µM (inactive) | – |
| O=C(c1ccc(F)cc1)n1c(=S)nc2ccccn21 | – | – | – | – | – | IC50 [1]: 18.1 µM (active); IC50 (Caspase-3): 52.2 µM (active); IC50 [2]: 60.4 µM (active); IC50 [3]: 86.1 µM (active); IC50 [6]: > 66 µM (inactive); IC50 [7]: > 66 µM (inactive) |
| COc1ccc(CNC(=O)c2cc3c(=O)n4ccccc4nc3n(Cc3cccnc3)c2=N)cc1 | – | – | – | 55.4 µM (inactive) | 47.3 µM (inactive) | – |
| O=C1/C(=C/Nc2ccc(O)cc2)c2ccccc2C(=O)N1Cc1ccccc1 | – | – | – | > 99 µM (inactive) | 44.3 µM (inactive) | EC50 [8]: 6.51 µM (active); EC50 [9]: 39.6 µM (active); EC50 [10]: 17.7 µM (active); EC50 (Streptokinase A): 18.6 µM (active); EC50 (Streptococcus): 14.6 µM (active); EC50 (H4): 33 µM (active) |
| CCCOc1ccc(-c2nnc(-c3ccco3)o2)cc1 | – | – | – | – | – | IC50 [1]: 11.6 µM (active); IC50 (Caspase-3): 17.4 µM (active); IC50 (Protein skinhead-1): 64 µM (inactive); IC50 [2]: 22.4 µM (active); IC50 [3]: 25.8 µM (active) |

Source: ChEMBL document CHEMBL1201862, “PubChem BioAssay data set” (2004)
